Measurements reported in a flash point compilation (Sun et al. 2020).

SMILES	flash point [°C]
CC(C)(C)c1ccccc1OP(=O)(Oc1ccccc1)Oc1ccccc1 [(2-tert-butylphenyl) diphenyl phosphate]	224.00
C1O[C@H]1[C@H]1CO1 [(2R)-2-[(2R)-oxiran-2-yl]oxirane]	46.00
O=C/C=C/c1ccccc1 [(E)-3-phenylprop-2-enal]	71.00
CCCCCCCC/C=C\CCCCCCCC(=O)O [(Z)-octadec-9-enoic acid]	189.00
CSSC [(methyldisulfanyl)methane]	24.00
CN(C)CCN(C)C [N,N,N',N'-tetramethylethane-1,2-diamine]	10.00
CCCCN(CCCC)CCCC [N,N-dibutylbutan-1-amine]	85.00
CCN(CC)N=O [N,N-diethylnitrous amide]	63.00
CN(C)Cc1ccccc1 [N,N-dimethyl-1-phenylmethanamine]	57.00
CN(C)C1CCCCC1 [N,N-dimethylcyclohexanamine]	42.00
CN(C)N=O [N,N-dimethylnitrous amide]	61.00
CCCN(CCC)CCC [N,N-dipropylpropan-1-amine]	37.00
CCCCOCN(C(=O)CCl)c1c(CC)cccc1CC [N-(butoxymethyl)-2-chloro-N-(2,6-diethylphenyl)acetamide]	114.00
CCCCN(CC)N=O [N-butyl-N-ethylnitrous amide]	93.00
CCCCN(C)N=O [N-butyl-N-methylnitrous amide]	32.00
CCCCNC1CCCCC1 [N-butylcyclohexanamine]	93.00
O=[N+]([O-])N(Cl)c1ccccc1 [N-chloro-N-phenylnitramide]	205.00
CCNC1CCCCC1 [N-ethylcyclohexanamine]	29.00
CNC(C)Cc1ccccc1 (centres undefined) [N-methyl-1-phenylpropan-2-amine]	9.00
CNc1ccccc1 [N-methylaniline]	79.00
CCSC(=O)N(CC(C)C)CC(C)C [S-ethyl N,N-bis(2-methylpropyl)carbamothioate]	116.00

SMILES	flash point [°C]
CCSC(=O)N1CCCCCC1 [S-ethyl azepane-1-carbothioate]	139.00
CCCCN(CC)C(=O)SCCC [S-propyl N-butyl-N-ethylcarbamothioate]	51.00
CCSCc1ccccc1OC(=O)NC [[2-(ethylsulfanylmethyl)phenyl] N-methylcarbamate]	123.00
NCc1cccc(CN)c1 [[3-(aminomethyl)phenyl]methanamine]	117.00
COC(=O)Nc1cccc(OC(=O)Nc2cccc(C)c2)c1 [[3-(methoxycarbonylamino)phenyl] N-(3-methylphenyl)carbamate]	74.00
CCC[CH2][Sn]([CH2]CCC)([O]C(C)=O)[O]C(C)=O [[acetyloxy(dibutyl)stannyl] acetate]	143.00
CCCCCCCCCCCC(=O)[O][Sn]([CH2]CCC)([CH2]CCC)[O]C(=O)CCCCCCCCCCC [[dibutyl(dodecanoyloxy)stannyl] dodecanoate]	235.00
C1=Cc2cccc3cccc1c23 [acenaphthylene]	122.00
CC=O [acetaldehyde]	-40.00
CC(=O)O [acetic acid]	40.00
Cl.Nc1ccccc1 [aniline;hydrochloride]	193.00
O=C1c2ccccc2C(=O)c2ccccc21 [anthracene-9,10-dione]	185.00
Cc1ccc([N+](=O)[O-])cc1.N.Nc1cccc([N+](=O)[O-])c1.Nc1ccccc1[N+](=O)[O-] [azane;1-methyl-4-nitrobenzene;2-nitroaniline;3-nitroaniline]	154.00
O=C(Cl)c1cccc(C(=O)Cl)c1 [benzene-1,3-dicarbonyl chloride]	180.00
O=S(=O)(O)c1ccccc1 [benzenesulfonic acid]	113.00
O=C(Cl)c1ccccc1 [benzoyl chloride]	72.00
O=C(Cl)OCc1ccccc1 [benzyl carbonochloridate]	108.00
CCCCC(CC)COC(=O)c1ccccc1C(=O)OCC(CC)CCCC (centres undefined) [bis(2-ethylhexyl) benzene-1,2-dicarboxylate]	207.00
COCCOC(=O)c1ccccc1C(=O)OCCOC [bis(2-methoxyethyl) benzene-1,2-dicarboxylate]	210.00
CC(C)COC(=O)c1ccccc1C(=O)OCC(C)C [bis(2-methylpropyl) benzene-1,2-dicarboxylate]	196.00

Other lines, results leading:

flash point [°C]	SMILES
121.00	C=C(C)C(=O)OCCCCCCCC(C)C [8-methylnonyl 2-methylprop-2-enoate]
105.00	Cc1cccc2cccnc12 [8-methylquinoline]
35.00	C1=C\CCCC\C=C/1 [(1Z,3Z)-cycloocta-1,3-diene]
80.00	CC1(C)OCC(CO)O1 (centres undefined) [(2,2-dimethyl-1,3-dioxolan-4-yl)methanol]
115.00	C=CC(=O)OCC(C)(C)COC(=O)C=C [(2,2-dimethyl-3-prop-2-enoyloxypropyl) prop-2-enoate]
102.00	CCCCCCCC(=O)Oc1c(Br)cc(C#N)cc1Br [(2,6-dibromo-4-cyanophenyl) octanoate]
283.00	OC[C@@H](O)[C@@H](O)[C@H](O)[C@@H](O)CO [(2R,3R,4R,5S)-hexane-1,2,3,4,5,6-hexol]
107.00	CC(C)=CCC/C(C)=C\CO [(2Z)-3,7-dimethylocta-2,6-dien-1-ol]
120.00	CC(C)C(=O)OCC(C)(C)C(O)C(C)C (centres undefined) [(3-hydroxy-2,2,4-trimethylpentyl) 2-methylpropanoate]
40.00	CN(C)C(=O)/N=N/C(=O)N(C)C [(3E)-3-(dimethylcarbamoylimino)-1,1-dimethylurea]
-29.00	C=C/C=C/C [(3E)-penta-1,3-diene]
112.00	CC1CCC(CO)CC1 (centres undefined) [(4-methylcyclohexyl)methanol]
48.00	C=C(C)[C@H]1CC=C(C)CC1 [(4R)-1-methyl-4-prop-1-en-2-ylcyclohexene]
273.00	O=C(O)/C=C/C(=O)O [(E)-but-2-enedioic acid]
96.00	NC(=O)/N=N/C(N)=O [(E)-carbamoyliminourea]
25.00	C1=CCC=C1 [InChI=1S/C5H6/c1-2-4-5-3-1/h1-4H,5H2]
102.00	NCCNCCN [N'-(2-aminoethyl)ethane-1,2-diamine]
36.00	CNCCCN [N'-methylpropane-1,3-diamine]
83.00	Cc1ccccc1N(C)C [N,N,2-trimethylaniline]
39.00	C=CCN(CC=C)CC=C [N,N-bis(prop-2-enyl)prop-2-en-1-amine]
77.00	CCN(CC)C(C)=O [N,N-diethylacetamide]
102.00	CCCCCN(CCCCC)CCCCC [N,N-dipentylpentan-1-amine]
171.00	CC(=O)CC(=O)Nc1ccc(C)cc1C [N-(2,4-dimethylphenyl)-3-oxobutanamide]
85.00	CCNc1ccccc1 [N-ethylaniline]

flash point [°C]	SMILES
18.00	CCCCNCC [N-ethylbutan-1-amine]
108.00	CNC(C)=O [N-methylacetamide]
51.00	CCCCCNCCCCC [N-pentylpentan-1-amine]
153.00	c1ccc(Nc2ccccc2)cc1 [N-phenylaniline]
88.00	CC(C)Nc1ccccc1 [N-propan-2-ylaniline]
116.00	CCCN(CCC)C(=O)SCC [S-ethyl N,N-dipropylcarbamothioate]
166.00	OCC1CCC(CO)CC1.OCC1CCC(CO)CC1 (centres undefined) [[4-(hydroxymethyl)cyclohexyl]methanol]
79.00	Br/C=C/c1ccccc1 [[(E)-2-bromoethenyl]benzene]
99.00	CC(=O)OCN=[N+](C)[O-] [acetyloxymethylimino-methyl-oxidoazanium]
121.00	c1ccc2cc3ccccc3cc2c1 [anthracene]
125.00	O=C1CCCCCN1 [azepan-2-one]
37.00	C1CCCNCC1 [azepane]
156.00	Nc1ccccc1N [benzene-1,2-diamine]
127.00	Oc1ccccc1O [benzene-1,2-diol]
138.00	Nc1cccc(N)c1 [benzene-1,3-diamine]
121.00	O=C(O)c1ccccc1 [benzoic acid]
80.00	O=C(OOC(=O)c1ccccc1)c1ccccc1 [benzoyl benzenecarboperoxoate]
180.00	O=C(OCc1ccccc1)c1ccccc1O [benzyl 2-hydroxybenzoate]
130.00	c1ccc(Cc2ccccc2)cc1 [benzylbenzene]
-21.00	C1=CC2C=CC1C2 [bicyclo[2.2.1]hepta-2,5-diene]
185.00	CCCCC(CC)COC(=O)/C=C\C(=O)OCC(CC)CCCC (centres undefined) [bis(2-ethylhexyl) (Z)-but-2-enedioate]
196.00	CCCCC(CC)COP(=O)(O)OCC(CC)CCCC (centres undefined) [bis(2-ethylhexyl) hydrogen phosphate]
210.00	CC(C)CCCCCOC(=O)CCCCC(=O)OCCCCCC(C)C [bis(6-methylheptyl) hexanedioate]
190.00	O=C(OCC1CO1)C1CCCCC1C(=O)OCC1CO1 (centres undefined) [bis(oxiran-2-ylmethyl) cyclohexane-1,2-dicarboxylate]
